From patent publication US20240140941A1, “DERIVATIVE OF 2,5-DIKETOPIPERAZINE COMPOUND, AND PREPARATION METHOD THEREFOR, PHARMACEUTICAL COMPOSITION THEREOF AND USE THEREOF” (DALIAN WZ PROBIOTICS AD HEALTH CO., LTD, priority 2020, published 2024) come the findings set out here.

Structures can show the parent of a compound that is named as a salt. Where two headings read alike, the source gives them in different places.

A short description of data set [1]: Compound solubility experiment, Method 2: about 2 mg salt in 0.2 mL ultrapure water, dissolution observed. Type of data set: physicochemical. As to conditions: 37 °C, thermodynamic from solid, salts, 37±1° C., shaken 24 hours. On the procedure:
Method 2: A 0.5 mL brown EP tube was taken, about 2 mg of hydrochloride of derivatives of 2,5-diketopiperazine compounds was weighed respectively, and 0.2 mL of ultrapure water was added thereto. The mixture was vortexed, put into an incubation shaker, maintained at a temperature of (37±1° C.), shaken at 100 r/min for 24 hours, so as to achieve full dissolution equilibrium. The dissolution of the mixture was observed.

For the next data set, the system named is NCI-H460. The data set can be described thus: Inhibition test on cell proliferation (MTT), NCI-H460. Format: cell-based, human. As to conditions: 72 hours of drug treatment, MTT, read-out: IC50 (nM) NCI-H460. The method, boiled down:
(§1)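 Cells plated at 2000-6000 per well, allowed to adhere for 24 h, then exposed to serially diluted compound for 72 h at 37 °C, 5% CO2. Viability read by MTT reduction, with formazan dissolved in DMSO and absorbance taken at 490 nm. Inhibition rate calculated relative to untreated and zero-setting wells.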

In the next data set the test system is BxPC-3. The data set can be described thus: Inhibition test on cell proliferation (MTT), BxPC-3. Format: cell-based, human. As to conditions: 72 hours of drug treatment, MTT, read-out: IC50 (nM) BxPC-3. The method, boiled down:
as §1

The next data set has as its system HCC-LM3. Description: Inhibition test on cell proliferation (MTT), HCC-LM3. Format: cell-based, human. The following applies: 72 hours of drug treatment, MTT, read-out: IC50 (nM) HCC-LM3. The method in brief: as §1
The next data set has as its system HT-29. The data set can be described thus: Inhibition test on cell proliferation (MTT), HT-29. Format: cell-based, human. As to conditions: 72 hours of drug treatment. The method, boiled down: as §1
The test system of data set [2] is β-tubulin. Description: Immunofluorescence experiment, NCI-H460 cell line. Type of data set: cell-based, human. The following applies: for β-tubulin fluorescence value: NCI-H460 cell line, control 20330 ± 1233; for number of tubulin distributed radially: NCI-H460 cells, in words. The method, then: (§2) 1. Cell membrane rupture: After the cover slip was shaken to slight dryness, a circle was drawn using a histochemical pen at the position where the cells were evenly distributed in the middle of the cover slip (to prevent the antibody from flowing away). 50 to 100 μL of membrane rupture working solution was added, and incubated at room temperature for 20 min, washed 3 times with PBS, 5 min each time.
(§3) 2. Serum blocking: BSA was added dropwise in the circle to evenly cover the tissue and block at room temperature for 30 min. (The primary antibody was from goat and blocked with 10% normal rabbit serum, and the primary antibody from other sources was blocked with 3% BSA)
(§4) 3. Adding the primary antibody: The blocking solution was shaken off gently, and the primary antibody was added dropwise in the cell well plate (prepared in a certain proportion using PBS), and the cell culture plate was placed flat in a humid box and incubated overnight at 4° C.
(§5) 4. Adding secondary antibody: PBS was added to the cell culture plate, placed on a decolorizing shaker, shaken and washed for 3 times, 5 min each time. After shaking to slight dryness, a secondary antibody corresponding to the species of the primary antibody in the histochemical kit was added dropwise in the circle to cover the tissue, and incubated at room temperature for 50 min.
(§6) 5. DAPI restaining nucleus: The cover slip was placed in PBS (pH 7.4), shaken and washed 3 times on the decolorizing shaker, 5 min each time. After the cover slip was shaken to slight dryness, DAPI staining solution was added dropwise in the circle, and incubated at room temperature for 10 min in the dark.
(§7) 6. Sealing the cover slip: The cover slip was placed in PBS (pH 7.4), shaken and washed 3 times on the decolorizing shaker, 5 min each time. After the cover slip was shaken to slight dryness, the cover slip was sealed with antifade mounting medium.
(§8) 7. Microscopic examination and photographing: The cover slip was observed under a fluorescent microscope and images were collected.

The subject of data set [3] is β-tubulin. Description: Immunofluorescence experiment, BxPC-3 cell line. Format: cell-based, human. The following applies: for β-tubulin fluorescence value: BxPC-3 cell line, control 29873 ± 4013; for number of tubulin distributed radially: BxPC-3 cells, in words. On the procedure:
as §2, §3, §4, §5, §6, §7, §8

The subject of the next data set is NCI-H460 cell line. The data set can be described thus: Cell apoptosis experiment (Annexin V/PI double staining, flow cytometer), NCI-H460. Format: cell-based, human. As to conditions: for number of apoptosis: NCI-H460, in words; for Proportion of late apoptotic cells / Proportion of early apoptotic cells: NCI-H460; for Proportion of late apoptotic cells: blank control 0.54%; for Proportion of early apoptotic cells: blank control 1.84%. On the procedure:
(§9) 1. Cell collection: The cell culture dish was taken out, the culture medium was washed with PBS, digested with EDTA-free trypsin, collected into a centrifuge tube. The number of cells per sample was about 1×10^6/mL, and the centrifuge tube was centrifuged at 800 r/min for 3 min, and the culture medium was discarded.
(§10) 2. The residue was washed twice with frozen PBS, centrifuged at 800 r/min for 3 min each time, and the supernatant was discarded.
(§11) 3. Blank group, single-stained group and double-stained group were set, and 100 μL of binding buffer was added thereto. 5 μL of FITC-annexin V and 5 μL of PI were chosen according to different groups, mixed gently, incubated at room temperature in the dark for 15 min, then 400 μL of binding buffer was added thereto, and the cells were gently mixed.
(§12) 4. After filtering the cell suspension with a 300-mesh nylon membrane, the cell suspension was detected by a flow cytometer.
For orientation: In flow cytometry, cells or beads pass a laser one at a time.

Another data set concerns BxPC-3 cell line. Description: Cell apoptosis experiment (Annexin V/PI double staining, flow cytometer), BxPC-3. Type of data set: cell-based, human. As to conditions: for number of apoptosis: BxPC-3, in words; for Proportion of late apoptotic cells / Proportion of early apoptotic cells: BxPC-3; for Proportion of late apoptotic cells: blank control 0.94%; for Proportion of early apoptotic cells: blank control 1.11%. The method, then: as §9, §10, §11, §12

The nature of data set [4]: Compound solubility experiment, Method 1: equilibrium solubility in pure water, LC-MS. Format: physicochemical. As to conditions: ultrapure water, 37±1° C., shaken 24 hours. The method, then:
Method 1: A 1.5 mL brown EP tube was taken, about 1 mg of compound was weighed respectively, and 1 mL of ultrapure water was added thereto. The mixture was vortexed, and sonicated until the compound was no longer dissolved (the solution was turbid or had suspended particles). The mixture was put into an incubation shaker, maintained at a temperature of (37±1° C.), shaken at 100 r/min for 24 hours, so as to achieve full dissolution equilibrium. After 24 hours, the supernatant was quickly filtered through a 0.45 μm microporous membrane, and the initial filtrate was discarded. 200 μL of the renewed filtrate was taken and diluted with 200 μL of methanol. The assay was repeated at least three times. According to the chromatographic conditions, the sample was injected by LC-MS, and the peak area was measured and the equilibrium solubility of each 2,5-diketopiperazine derivative in pure water was calculated.

As to `CC(C)c1c(/C=c2\[nH]c(=O)/c(=C/c3cccc(C(=O)c4ccc(F)cc4)c3)[nH]c2=O)ncn1CCCN1CCOCC1` [PLN-2-1-1, (3Z,6Z)-3-(3-(p-Fluorobenzoyl)phenyl)methylene-6-((5-isopropyl-1-(3-morpholinyl)propylimidazol-4-yl)methylene)piperazine-2,5-dione, hydrochloride], the solubility (in general, the dissolved amount per volume that the medium holds) at 24 h in data set [1] is greater than 10000 µg/mL. In addition, the IC50 – broadly, the concentration at which inhibition is half-maximal – came out at 2.28 ± 1.24 nM in the data set on NCI-H460 (hydrochloride), 1.77 ± 0.03 nM in the data set with BxPC-3 (hydrochloride), 2.04 ± 0.57 nM in the data set with HCC-LM3 (hydrochloride) and 1.56 ± 0.47 nM in the data set on HT-29 (hydrochloride). For the same compound, the β-tubulin fluorescence value in the data set on β-tubulin [2] came to 5344; with β-tubulin [3], 9533. Moreover, the “number of tubulin distributed radially” value with β-tubulin [2] and in the data set with β-tubulin [3] was “significantly reduced” throughout. For the same compound, the number of apoptosis entry in the data set with NCI-H460 cell line and in the data set on BxPC-3 cell line was “significantly increased” each time. Moreover, the “Proportion of late apoptotic cells” value with NCI-H460 cell line came to 9.70%; with BxPC-3 cell line it was 6.79%. The figures for the “Proportion of early apoptotic cells” value with NCI-H460 cell line and in the data set on BxPC-3 cell line were 3.55% and 3.82%, respectively.
For the compound `O=C(c1ccc(F)cc1)c1cccc(/C=c2\[nH]c(=O)/c(=C/c3ncn(CCCN4CCOCC4)c3C3CC3)[nH]c2=O)c1` [PLN-2-3-1, (3Z,6Z)-3-(3-(p-Fluorobenzoyl)phenyl)methylene-6-((5-cyclopropyl-1-(3-morpholinyl)propylimidazol-4-yl)methylene)piperazine-2,5-dione, hydrochloride], the solubility at 24 h in data set [1] was greater than 10000 µg/mL. Also, the IC50 with NCI-H460 (hydrochloride) stood at 5.6 ± 0.41 nM. Besides, in the data set with β-tubulin [2], the β-tubulin fluorescence value worked out at 7822 and the “number of tubulin distributed radially” value is on record as “significantly reduced”. In addition, in the data set on β-tubulin [3], the β-tubulin fluorescence value was found to be 9000 and the “number of tubulin distributed radially” value is reported as “significantly reduced”. Moreover, in the data set with NCI-H460 cell line, the number of apoptosis result is on record as “significantly increased”, the “Proportion of late apoptotic cells” value is reported as 6.76% and the “Proportion of early apoptotic cells” value was 3.08%. Further, in the data set with BxPC-3 cell line, the number of apoptosis result is “significantly increased”, the “Proportion of late apoptotic cells” value was 5.83% and the “Proportion of early apoptotic cells” value stood at 2.75%.
`CC(C)(C)c1[nH]cnc1/C=c1\[nH]c(=O)/c(=C/c2ccccc2)[nH]c1=O` [Plinabulin, reference compound]: in data set [4], the Solubility (as a rule, the dissolved amount per volume that the medium holds) was less than 0.25 µg/mL. Also, the IC50 in the data set on NCI-H460 (Homo sapiens, NCI-H460, 72 h) came out at 11.6 ± 0.96 nM; with BxPC-3 (Homo sapiens, BXPC-3, 72 h), 5.41 ± 0.76 nM; with HCC-LM3 (Homo sapiens, HCCLM3, 72 h), 8.31 ± 0.23 nM; in the data set on HT-29 (Homo sapiens, HT-29, 72 h), 5.74 ± 0.73 nM. Besides, the β-tubulin fluorescence value in the data set on β-tubulin [2] is 8133; in the data set on β-tubulin [3], 11000. Besides, the “Proportion of late apoptotic cells” value came out at 5.18% in the data set with NCI-H460 cell line and 3.85% in the data set with BxPC-3 cell line. For the same compound, the “Proportion of early apoptotic cells” value in the data set on NCI-H460 cell line came to 1.90%; in the data set with BxPC-3 cell line, 1.66%.
